These are literature values, as cited in US20120108678A1, “BRANCHED COPOLYMERS, COMPOSITIONS AND USES” (UNILEVER PLC, priority 2009, published 2012).

`C=CC(=O)OCCO` [2-Hydroxyethyl acrylate]: the “Solubility in water w/w at 20° C.” value is “soluble”.
Turning to `C=C(C)C(=O)OCCO` [2-Hydroxyethyl methacrylate], the “Solubility in water w/w at 20° C.” value was 3.00 w/w.
Take `C=CC(=O)OCC(C)O` (centres unmarked) [2-Hydroxypropyl acrylate]: the “Solubility in water w/w at 20° C.” value was “Soluble”.
Regarding `C=C(C)C(=O)O` [Methacrylic acid], the “Solubility in water w/w at 20° C.” value was “Soluble”.
Consider `C=Cc1ccccc1` [styrene], for which, for the setting “water-insoluble monomer examples”, the water solubility is 0.02 % w/w.
